Legend:
[1] = test system: Enterococcus faecalis W-73; test: minimum growth inhibitory concentration, serial dilution method; assay type: cell-based; details: sodium salts, 35° C., 18-20 hours; for MIC: Enterococcus faecalis, W73, Enterococcus faecalis W-73, read-out: Minimum growth inhibition concentrations (MIC); for Minimum growth inhibition concentrations (MIC): Enterococcus faecalis W-73
Procedure: (§1) The determination of MIC. was conducted by inoculating the test microorganism to an incubation medium N for sensitive disc (a product of Nissui Seiyaku Co., Japan), effecting the incubation at 35° C. for 18-20 hours and then estimating the growth of the bacteria. The compounds tested were the sodium salts of Compound A to Compound F indicated below:
(§2) For the comparison purpose, the values similarly determined of MIC. ([…]) of ME1206 compound (sodium salt), Cefdinir (sodium salt) (abbreviated as CFDN) and Cefixime (sodium salt) (abbreviated as CFIX) are also shown in Table 1.

[2] = test system: Serratia marcescens No. 1; test: as above; assay type: cell-based; details: sodium salts, 35° C., 18-20 hours; for MIC: read-out: Minimum growth inhibition concentrations (MIC)
Procedure: as §1, §2

[3] = test system: Staphylococcus aureus M133*; test: as above; assay type: cell-based; details: S. aureus M133, methicillin-resistant (MRSA), sodium salts, 35° C., 18-20 hours; for MIC: Staphylococcus aureus, MRSA, read-out: Minimum growth inhibition concentrations (MIC)
Procedure: as §1, §2

[4] = test system: Enterobacter cloacae G-0008; test: as above; assay type: cell-based; details: 35° C., 18-20 hours; for MIC: G0008, sodium salts, read-out: Minimum growth inhibition concentrations (MIC)
Procedure: as §1, §2

Morganella morganii 1510 = test: as above; assay type: cell-based; details: sodium salts, 35° C., 18-20 hours; for MIC: Morganella morganii, 1510, Morganella morganii 1510, read-out: Minimum growth inhibition concentrations (MIC)
Procedure: as §1, §2

[5] = test system: Staphylococcus aureus M126*; test: as above; assay type: cell-based; details: S. aureus M126, methicillin-resistant (MRSA), sodium salts, 35° C., 18-20 hours; for MIC: Staphylococcus aureus, read-out: Minimum growth inhibition concentrations (MIC)
Procedure: as §1, §2

[6] = test system: Enterococcus hirae ATCC 8043; test: as above; assay type: cell-based; details: sodium salts, 35° C., 18-20 hours; for MIC: Enterococcus hirae, ATCC8043, Enterococcus hirae ATCC 8043, read-out: Minimum growth inhibition concentrations (MIC)
Procedure: as §1, §2

Escherichia coli GN 206 = test: as above; assay type: cell-based; details: sodium salts, 35° C., 18-20 hours; for MIC: Escherichia coli, GN206, Escherichia coli GN 206, read-out: Minimum growth inhibition concentrations (MIC)
Procedure: as §1, §2

[7] = test system: Staphylococcus aureus 209P JC-1; test: as above; assay type: cell-based; details: S. aureus 209P JC-1, sodium salts, 35° C., 18-20 hours; for MIC: Staphylococcus aureus, 209P, read-out: Minimum growth inhibition concentrations (MIC)
Procedure: as §1, §2

[8] = blood concentration pharmacokinetics after subcutaneous injection in mice; assay type: in vivo, mice (Jcl;ICR strain); details: for concentration in blood (in words): injected subcutaneously, mice; for half-life / AUC: mouse, serum, sc, 0.5 mg; for AUC: read-out: AUC (area under the plasma concentration-time curve)
Procedure: The test procedure used was as follows: Thus, to mice of Jcl;ICR strain (4 week-aged, male) each was administered subcutaneously an aqueous solution containing 2.5 mg/ml of a test compound dissolved in distilled water sterilized for injections, in such a way that 0.2 ml of said aqueous solution (corresponding to a dosage of the test compound of 0.5 mg per mouse) was injected to one mouse. At the time-points of 5, 15, 30, 60 and 120 minutes after the administration, the blood samples were collected from the armpit of mouse. The blood samples so collected were each allowed to stand for about 2 hours at room temperature and then centrifuged for 10 minutes in a centrifugal separator to recover the serum. The serum obtained was mixed well with an equal volume of methanol added thereto, and the resulting mixture was centrifuged at 12,000 rpm. for 3 minutes. The supernatant obtained was passed through a filter (Sumplep LCR-13-LH) to obtain the serum sample to be assayed by a high performance liquid chromatography (HPLC). This serum sample was assayed by HPLC to measure quantitatively the concentration of the test compound in the serum.
For each test compound, its half-life value in blood and its AUC (Area under the plasma concentration-time curve),which are the pharmacokinetic parameters, were evaluated according to the method of Gauss-Newton.
For the comparison purpose, the ME1206 compound was also tested in the same manner as above.

[9] = sodium salt, subcutaneous, 0.5 mg per mouse, HPLC of serum

MIC [1] | MIC [2] | MIC [3] | MIC [4] | MIC (Morganella morganii 1510) | MIC [5] | MIC [6] | MIC (Escherichia coli GN 206) | MIC [7] | half-life [8, 9] | AUC [8, 9] | SMILES | concentration in blood (in words) [8] | further results
> 100 µg/mL | 0.78 µg/mL | 100 µg/mL | 0.78 µg/mL | 50 µg/mL | > 100 µg/mL | > 100 µg/mL | 50 µg/mL | 12.5 µg/mL | – | – | C=CC1=C(C(=O)O)N2C(=O)[C@@H](NC(=O)/C(=N\OCC(=O)O)c3csc(N)n3)[C@H]2SC1 [CFIX, Cefixime, reference compound] | – | –
12.5 µg/mL | 1.56 µg/mL | 6.25 µg/mL | 1.56 µg/mL | 1.56 µg/mL | 25 µg/mL | 6.25 µg/mL | 1.56 µg/mL | 0.39 µg/mL | 0.7 h | 149 µg·h/mL | Nc1nc(C(=NO)C(=O)NC2C(=O)N3C(C(=O)O)=C(C=Cc4scnc4C(F)(F)F)CSC23)cs1 (stereo not drawn) [Compound B, 7-[2-Hydroxyimino-2-(2-aminothiazol-4-yl)acet-amido]-3-[2-(4-trifluoromethylthiazol-5-yl)vinyl]-3-cephem-4-carboxylic acid (syn-isomer, cis-isomer)] | capable of maintaining a high concentration in blood | –
– | 0.78 µg/mL | 3.13 µg/mL | 0.78 µg/mL | 12.5 µg/mL | 25 µg/mL | 12.5 µg/mL | 1.56 µg/mL | 0.1 µg/mL | – | – | Nc1nc(C(=NO)C(=O)NC2C(=O)N3C(C(=O)O)=C(C=Cc4cncs4)CSC23)cs1 (stereo not drawn) [Compound D, 7-[2-Hydroxyimino-2-(2-aminothiazol-4-yl)acet-amido]-3-[2-(thiazol-5-yl)vinyl]-3-cephem-4-carboxylic acid(syn-isomer, cis-isomer)] | capable of maintaining a high concentration in blood | Minimum growth inhibition concentrations (MIC) [1]: 1.56 µg/mL
– | – | – | – | – | – | – | – | – | 1.1 h | 253 µg·h/mL | Nc1nc(C(=NO)C(=O)NC2C(=O)N3C(C(=O)O)=C(C=Cc4cncs4)CSC23)cs1 (stereo not drawn) [Compound E, 7-[2-Hydroxyimino-2-(2-aminothiazol-4-yl)acet-amido]-3-[2-(thiazol-5-yl)vinyl]-3-cephem-4-carboxylic acid (syn-isomer, trans-isomer)] | capable of maintaining a high concentration in blood | Minimum growth inhibition concentrations (MIC) [1]: 3.13 µg/mL; Minimum growth inhibition concentrations (MIC) [2]: 0.78 µg/mL; Minimum growth inhibition concentrations (MIC) [3]: 6.25 µg/mL; Minimum growth inhibition concentrations (MIC) ([4]; sodium salts): 0.78 µg/mL; Minimum growth inhibition concentrations (MIC) (Morganella morganii 1510; Morganella morganii 1510): 6.25 µg/mL; Minimum growth inhibition concentrations (MIC) [5]: 25 µg/mL; Minimum growth inhibition concentrations (MIC) ([6]; Enterococcus hirae ATCC 8043): 25 µg/mL; Minimum growth inhibition concentrations (MIC) (Escherichia coli GN 206; Escherichia coli GN 206): 0.78 µg/mL; Minimum growth inhibition concentrations (MIC) [7]: 0.20 µg/mL
25 µg/mL | 3.13 µg/mL | 3.13 µg/mL | 1.56 µg/mL | 25 µg/mL | 50 µg/mL | 25 µg/mL | 6.25 µg/mL | 0.39 µg/mL | 0.9 h | 163 µg·h/mL | Cc1ncsc1C=CC1=C(C(=O)O)N2C(=O)C(NC(=O)C(=NO)c3nsc(N)n3)C2SC1 (stereo not drawn) [Compound F, 7-[2-Hydroxyimino-2-(5-amino-1,2,4-thiadiazol-3-yl)acetamido]-3-[2-(4-methylthiazol-5-yl)vinyl]-3-cephem-4-carboxylic acid (syn-isomer, cis-isomer)] | capable of maintaining a high concentration in blood | –

Second part, the compound before the results:

SMILES | MIC [1] | MIC [2] | MIC [3] | MIC [4] | MIC (Morganella morganii 1510) | MIC [5] | MIC [6] | MIC (Escherichia coli GN 206) | MIC [7] | half-life [8, 9] | AUC [8, 9] | concentration in blood (in words) [8] | further results
C=CC1=C(C(=O)O)N2C(=O)[C@@H](NC(=O)/C(=N\O)c3csc(N)n3)[C@H]2SC1 [CFDN, Cefdinir, reference compound] | 25 µg/mL | 25 µg/mL | 6.25 µg/mL | 6.25 µg/mL | 25 µg/mL | > 100 µg/mL | 50 µg/mL | 25 µg/mL | 0.2 µg/mL | – | – | – | –
Nc1nc(C(=NO)C(=O)NC2C(=O)N3C(C(=O)O)=C(C=Cc4scnc4Cl)CSC23)cs1 (stereo not drawn) [Compound A, 7-[2-Hydroxyimino-2-(2-aminothiazol-4-yl)acet-amido]-3-[2-(4-chlorothiazol-5-yl)vinyl]-3-cephem-4-carboxylic acid (syn-isomer, cis-isomer)] | 6.25 µg/mL | 1.56 µg/mL | 6.25 µg/mL | 1.56 µg/mL | 12.5 µg/mL | 25 µg/mL | 12.5 µg/mL | 1.56 µg/mL | 0.1 µg/mL | 1.1 h | 211 µg·h/mL | capable of maintaining a high concentration in blood | –
Cc1ncsc1C=CC1=C(C(=O)O)N2C(=O)C(NC(=O)C(=NO)c3csc(N)n3)C2SC1 (stereo not drawn) [Compound C, 7-[2-Hydroxyimino-2-(2-aminothiazol-4-yl)acet-amido]-3-[2-(4-methylthiazol-5-yl)vinyl]-3-cephem-4-carboxylic acid (syn-isomer, cis-isomer)] | 12.5 µg/mL | 1.56 µg/mL | 6.25 µg/mL | 0.78 µg/mL | 1.56 µg/mL | 25 µg/mL | 6.25 µg/mL | 3.13 µg/mL | 0.2 µg/mL | 1.4 h | 249 µg·h/mL | capable of maintaining a high concentration in blood | AUC (area under the plasma concentration-time curve) [8, 9]: 315.5 µg·h/mL; Half-life value in blood [8, 9]: 1.7 h
CON=C(C(=O)NC1C(=O)N2C(C(=O)O)=C(C=Cc3scnc3C)CSC12)c1csc(N)n1 (stereo not drawn) [ME1206, 7-[2-methoxyimino-2-(2-aminothiazol-4-yl)acetamido]-3-[2-(4-methylthiazol-5-yl)vinyl]-3-cephem-4-carboxylic acid (syn-isomer, cis-isomer), reference compound] | 100 µg/mL | 0.39 µg/mL | 25 µg/mL | 1.56 µg/mL | 25 µg/mL | 100 µg/mL | 50 µg/mL | 0.78 µg/mL | 0.39 µg/mL | 1.1 h | 184 µg·h/mL | – | –
